Measurements reported in patent US20100143438A1, “BIOMOLECULES” (University of Strathclyde, priority 2006, published 2010).

Tested on: Fmoc-FRGD-PEGA surface tethered peptide (Fmoc-F↓RGD bond)
Assay: Enzymatic hydrolysis of PEGA surface tethered peptides analysed by HPLC
Type: biochemical
Method: Three proteolytic enzymes, chymotrypsin, thermolysin and proteinase K, that are known to cleave peptide bonds involving F amino acids in the P1 position were tested for their ability to selectively hydrolyse Fmoc-F↓RGD bond^15. […] Surfaces were incubated at 37° C. for 2 hours in enzyme solution (concentrations and activities are shown in Table 1) in phosphate buffer and the cleaved products were analysed by HPLC.
Surfaces were rinsed in a known volume (at least 4 ml) of a 50:50 mixture of acetonitrile (ACN) and water. The rinsing solution was kept and added to the enzyme solution that the surface was in. 1 ml of this solution was placed into an HPLC autosampler vial. The HPLC machine (manufactured by Dionex; California, USA) consisted of a P.680 HPLC pump joined to an ASI-100 Automated Sample Injector with a Dionex UVD17OU detector. The column was an EC 250/4.6 Nucleosil 100-5 C18, with an internal diameter of 4.6 mm and a column length of 250 mm containing particles of 5 μm in diameter. 100 μl was injected into the HPLC column at the start of each run and a buffer gradient run through the column, buffer A was 99.9% water and 0.1% TFA, buffer B was 99.9% ACN and 0.1% TFA. For quantification, three samples of each surface were produced and repeated three times.

[1] = 37° C., 2 hours in enzyme solution, 100% = 4.08 nmol maximum Fmoc-peptide hydrolysed, n=9

Chymotrypsin
Fmoc-F-OH (%) [1]: 42 ± 1.8%
Fmoc-FR-OH (%) [1]: 7.5 ± 1.4%
cleavage and selectivity for Fmoc-F↓RGD versus Fmoc-FR↓GD (HPLC): performing best
